Source: patent US12522583B2, “Benzimidazole derivatives and aza-benzimidazole derivatives as Janus kinase 2 inhibitors and uses thereof” (Dana-Farber Cancer Institute, Inc., priority 2018, dated 2026)

Tests used:
Assay in all cases: KINOMEscan
Format in all cases: binding
Settings in all cases: read-out: percent control
[1] = molecular target: ABL1(F317I)-nonphosphorylated (Homo sapiens (Human), UniProt P00519, F317I)
Excerpt: (§1) Example 2. In Vitro Kinase Selectivity Profiling of the Compounds of the Present Disclosure

[2] = molecular target: ABL1(T315I)-nonphosphorylated (Homo sapiens (Human), UniProt P00519, T315I)
Excerpt: as §1

[3] = molecular target: ADCK3 (Homo sapiens (Human), UniProt Q8NI60)
Excerpt: as §1

[4] = molecular target: ANKK1 (Homo sapiens (Human), UniProt Q8NFD2)
Excerpt: as §1

[5] = molecular target: BUB 1 (Homo sapiens (Human), UniProt O43683)
Excerpt: as §1

[6] = molecular target: CAMK1B (Homo sapiens (Human), UniProt Q6P2M8)
Excerpt: as §1

[7] = molecular target: CAMK2A (Homo sapiens (Human), UniProt Q9UQM7)
Excerpt: as §1

[8] = molecular target: CDC2L1 (Homo sapiens (Human), UniProt P21127)
Excerpt: as §1

[9] = molecular target: CSF1R (Homo sapiens (Human), UniProt P07333)
Excerpt: as §1

[10] = molecular target: DAPK2 (Homo sapiens (Human), UniProt Q9UIK4)
Excerpt: as §1

[11] = molecular target: DMPK2 (Homo sapiens (Human), UniProt Q6DT37)
Excerpt: as §1

[12] = molecular target: EGFR(L747-E749del, A750P) (Homo sapiens (Human), UniProt P00533, A750P/DEL747-749)
Excerpt: as §1

[13] = molecular target: EPHA7 (Homo sapiens (Human), UniProt Q15375)
Excerpt: as §1

[14] = molecular target: ERK2 (Homo sapiens (Human), UniProt P28482)
Excerpt: as §1

[15] = molecular target: FGFR3 (Homo sapiens (Human), UniProt P22607)
Excerpt: as §1

[16] = molecular target: HASPIN (Homo sapiens (Human), UniProt Q8TF76)
Excerpt: as §1

[17] = molecular target: HIPK2 (Homo sapiens (Human), UniProt Q9H2X6)
Excerpt: as §1

[18] = molecular target: HUNK (Homo sapiens (Human), UniProt P57058)
Excerpt: as §1

[19] = molecular target: IGF1R (Homo sapiens (Human), UniProt P08069)
Excerpt: as §1

[20] = molecular target: LCK (Homo sapiens (Human), UniProt P06239)
Excerpt: as §1

[21] = molecular target: MET (Homo sapiens (Human), UniProt P08581)
Excerpt: as §1

[22] = molecular target: MYLK2 (Homo sapiens (Human), UniProt Q9H1R3)
Excerpt: as §1

[23] = molecular target: MYLK4 (Homo sapiens (Human), UniProt Q86YV6)
Excerpt: as §1

[24] = molecular target: NIM1 (Homo sapiens (Human), UniProt Q8IY84)
Excerpt: as §1

[25] = molecular target: PCTK1 (Homo sapiens (Human), UniProt Q00536)
Excerpt: as §1

[26] = molecular target: PDGFRA (Homo sapiens (Human), UniProt P16234)
Excerpt: as §1

[27] = molecular target: PIK3C2B (Homo sapiens (Human), UniProt O00750)
Excerpt: as §1

[28] = molecular target: PIP5K1A (Homo sapiens (Human), UniProt Q99755)
Excerpt: as §1

[29] = molecular target: PIP5K1C (Homo sapiens (Human), UniProt O60331)
Excerpt: as §1

[30] = molecular target: PKN1 (Homo sapiens (Human), UniProt Q16512)
Excerpt: as §1

[31] = molecular target: PLK4 (Homo sapiens (Human), UniProt O00444)
Excerpt: as §1

[32] = molecular target: PRKCI (Homo sapiens (Human), UniProt P41743)
Excerpt: as §1

[33] = molecular target: RIPK2 (Homo sapiens (Human), UniProt O43353)
Excerpt: as §1

[34] = molecular target: RIPK4 (Homo sapiens (Human), UniProt P57078)
Excerpt: as §1

[35] = molecular target: RPS6KA4(Kin.Dom.2-terminal) (Homo sapiens (Human), UniProt O75676)
Excerpt: as §1

[36] = molecular target: S6K1 (Homo sapiens (Human), UniProt P23443)
Excerpt: as §1

[37] = molecular target: SNRK (Homo sapiens (Human), UniProt Q9NRH2)
Excerpt: as §1

[38] = molecular target: TEC (Homo sapiens (Human), UniProt P42680)
Excerpt: as §1

[39] = molecular target: TRKA (Homo sapiens (Human), UniProt P04629)
Excerpt: as §1

[40] = molecular target: YANK1 (Homo sapiens (Human), UniProt Q8WU08)
Excerpt: as §1

PIP5K1C, sequence (O60331 whole entry): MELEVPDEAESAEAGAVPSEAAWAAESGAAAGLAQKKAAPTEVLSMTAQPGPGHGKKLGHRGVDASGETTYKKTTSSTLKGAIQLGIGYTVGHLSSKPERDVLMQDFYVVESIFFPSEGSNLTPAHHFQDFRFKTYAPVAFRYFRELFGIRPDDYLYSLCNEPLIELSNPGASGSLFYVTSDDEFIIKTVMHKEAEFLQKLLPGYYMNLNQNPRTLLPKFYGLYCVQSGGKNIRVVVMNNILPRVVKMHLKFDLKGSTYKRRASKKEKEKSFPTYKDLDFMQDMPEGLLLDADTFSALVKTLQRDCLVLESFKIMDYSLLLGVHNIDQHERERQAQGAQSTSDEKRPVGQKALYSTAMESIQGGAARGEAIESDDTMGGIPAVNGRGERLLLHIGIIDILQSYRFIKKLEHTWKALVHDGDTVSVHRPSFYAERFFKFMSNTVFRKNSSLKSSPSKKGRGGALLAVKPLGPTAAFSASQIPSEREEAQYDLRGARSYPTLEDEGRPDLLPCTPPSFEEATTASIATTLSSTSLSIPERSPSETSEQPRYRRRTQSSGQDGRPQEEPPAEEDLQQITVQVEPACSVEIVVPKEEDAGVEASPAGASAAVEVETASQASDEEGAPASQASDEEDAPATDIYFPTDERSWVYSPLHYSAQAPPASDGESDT
MYLK4, sequence (Q86YV6 whole entry): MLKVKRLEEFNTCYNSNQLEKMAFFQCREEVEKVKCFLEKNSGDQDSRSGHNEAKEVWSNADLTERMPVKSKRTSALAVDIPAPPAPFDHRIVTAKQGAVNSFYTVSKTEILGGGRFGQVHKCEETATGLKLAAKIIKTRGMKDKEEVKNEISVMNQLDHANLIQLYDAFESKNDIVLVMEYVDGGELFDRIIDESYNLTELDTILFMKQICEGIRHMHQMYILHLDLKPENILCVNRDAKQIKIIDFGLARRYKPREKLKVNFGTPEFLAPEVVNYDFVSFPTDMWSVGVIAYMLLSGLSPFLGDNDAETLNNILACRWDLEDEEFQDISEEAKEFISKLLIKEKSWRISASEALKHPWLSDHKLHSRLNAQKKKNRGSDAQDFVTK
BUB 1, sequence (O43683 whole entry): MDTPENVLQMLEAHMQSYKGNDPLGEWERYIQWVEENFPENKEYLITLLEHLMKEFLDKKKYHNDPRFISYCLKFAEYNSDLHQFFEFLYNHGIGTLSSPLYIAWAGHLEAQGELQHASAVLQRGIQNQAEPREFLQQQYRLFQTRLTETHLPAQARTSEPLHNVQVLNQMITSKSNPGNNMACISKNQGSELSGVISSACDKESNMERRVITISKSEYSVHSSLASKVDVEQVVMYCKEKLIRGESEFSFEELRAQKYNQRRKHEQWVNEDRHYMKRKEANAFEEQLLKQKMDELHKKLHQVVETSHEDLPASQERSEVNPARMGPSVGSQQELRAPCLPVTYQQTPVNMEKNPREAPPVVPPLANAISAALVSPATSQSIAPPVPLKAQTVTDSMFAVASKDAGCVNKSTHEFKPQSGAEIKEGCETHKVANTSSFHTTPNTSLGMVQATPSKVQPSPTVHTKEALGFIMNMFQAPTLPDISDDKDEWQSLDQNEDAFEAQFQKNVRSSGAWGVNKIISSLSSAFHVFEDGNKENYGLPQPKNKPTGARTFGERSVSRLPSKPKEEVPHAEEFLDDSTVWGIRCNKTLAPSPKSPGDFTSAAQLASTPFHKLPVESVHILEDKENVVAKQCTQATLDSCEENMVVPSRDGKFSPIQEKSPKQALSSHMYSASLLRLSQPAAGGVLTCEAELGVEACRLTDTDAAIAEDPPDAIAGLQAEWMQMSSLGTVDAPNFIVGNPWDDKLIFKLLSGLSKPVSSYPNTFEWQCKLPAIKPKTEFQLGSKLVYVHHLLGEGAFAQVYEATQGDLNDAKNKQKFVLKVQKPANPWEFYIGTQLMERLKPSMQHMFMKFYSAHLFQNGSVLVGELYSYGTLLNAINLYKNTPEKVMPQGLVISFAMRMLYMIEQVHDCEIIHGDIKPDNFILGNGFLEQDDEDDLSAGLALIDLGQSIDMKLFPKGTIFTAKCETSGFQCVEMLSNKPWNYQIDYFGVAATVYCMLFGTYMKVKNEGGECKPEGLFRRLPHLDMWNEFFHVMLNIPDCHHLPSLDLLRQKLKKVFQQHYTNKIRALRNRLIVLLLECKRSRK
PRKCI, sequence (P41743 whole entry): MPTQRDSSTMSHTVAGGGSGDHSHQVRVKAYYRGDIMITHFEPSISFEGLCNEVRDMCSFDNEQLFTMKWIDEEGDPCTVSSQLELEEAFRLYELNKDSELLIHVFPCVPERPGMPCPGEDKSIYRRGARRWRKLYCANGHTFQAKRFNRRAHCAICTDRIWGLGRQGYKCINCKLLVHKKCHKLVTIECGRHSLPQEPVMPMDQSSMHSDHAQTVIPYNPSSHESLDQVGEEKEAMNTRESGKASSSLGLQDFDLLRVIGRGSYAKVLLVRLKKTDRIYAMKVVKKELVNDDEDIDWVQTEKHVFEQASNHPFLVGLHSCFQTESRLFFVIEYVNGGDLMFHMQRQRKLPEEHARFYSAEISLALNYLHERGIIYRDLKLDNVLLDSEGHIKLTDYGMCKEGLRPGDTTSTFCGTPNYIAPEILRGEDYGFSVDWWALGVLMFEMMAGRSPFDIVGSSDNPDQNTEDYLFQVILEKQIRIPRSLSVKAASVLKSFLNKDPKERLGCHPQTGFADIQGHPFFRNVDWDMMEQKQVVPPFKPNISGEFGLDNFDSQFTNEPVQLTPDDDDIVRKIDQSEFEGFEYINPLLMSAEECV
SNRK, sequence (Q9NRH2 whole entry): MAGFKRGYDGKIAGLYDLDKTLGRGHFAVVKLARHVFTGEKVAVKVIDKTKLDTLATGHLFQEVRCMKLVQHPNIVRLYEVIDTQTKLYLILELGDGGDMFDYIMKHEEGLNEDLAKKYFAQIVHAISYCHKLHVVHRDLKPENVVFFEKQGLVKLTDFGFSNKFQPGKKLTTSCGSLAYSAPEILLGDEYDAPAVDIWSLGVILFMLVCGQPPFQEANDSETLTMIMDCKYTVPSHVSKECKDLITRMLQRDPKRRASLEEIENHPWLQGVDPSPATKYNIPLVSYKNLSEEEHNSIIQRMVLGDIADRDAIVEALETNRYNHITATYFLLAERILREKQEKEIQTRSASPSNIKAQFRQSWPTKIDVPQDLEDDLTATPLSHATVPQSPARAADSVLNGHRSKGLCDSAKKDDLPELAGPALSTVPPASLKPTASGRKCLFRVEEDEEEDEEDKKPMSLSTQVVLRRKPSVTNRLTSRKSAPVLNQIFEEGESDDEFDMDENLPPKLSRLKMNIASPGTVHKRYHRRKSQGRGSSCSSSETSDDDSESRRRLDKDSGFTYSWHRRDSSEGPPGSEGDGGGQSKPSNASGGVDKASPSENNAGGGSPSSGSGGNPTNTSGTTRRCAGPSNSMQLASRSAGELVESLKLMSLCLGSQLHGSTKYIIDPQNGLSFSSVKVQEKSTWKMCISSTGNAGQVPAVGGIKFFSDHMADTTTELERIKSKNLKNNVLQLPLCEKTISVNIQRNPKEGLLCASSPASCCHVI
TRKA, sequence (P04629 33-796): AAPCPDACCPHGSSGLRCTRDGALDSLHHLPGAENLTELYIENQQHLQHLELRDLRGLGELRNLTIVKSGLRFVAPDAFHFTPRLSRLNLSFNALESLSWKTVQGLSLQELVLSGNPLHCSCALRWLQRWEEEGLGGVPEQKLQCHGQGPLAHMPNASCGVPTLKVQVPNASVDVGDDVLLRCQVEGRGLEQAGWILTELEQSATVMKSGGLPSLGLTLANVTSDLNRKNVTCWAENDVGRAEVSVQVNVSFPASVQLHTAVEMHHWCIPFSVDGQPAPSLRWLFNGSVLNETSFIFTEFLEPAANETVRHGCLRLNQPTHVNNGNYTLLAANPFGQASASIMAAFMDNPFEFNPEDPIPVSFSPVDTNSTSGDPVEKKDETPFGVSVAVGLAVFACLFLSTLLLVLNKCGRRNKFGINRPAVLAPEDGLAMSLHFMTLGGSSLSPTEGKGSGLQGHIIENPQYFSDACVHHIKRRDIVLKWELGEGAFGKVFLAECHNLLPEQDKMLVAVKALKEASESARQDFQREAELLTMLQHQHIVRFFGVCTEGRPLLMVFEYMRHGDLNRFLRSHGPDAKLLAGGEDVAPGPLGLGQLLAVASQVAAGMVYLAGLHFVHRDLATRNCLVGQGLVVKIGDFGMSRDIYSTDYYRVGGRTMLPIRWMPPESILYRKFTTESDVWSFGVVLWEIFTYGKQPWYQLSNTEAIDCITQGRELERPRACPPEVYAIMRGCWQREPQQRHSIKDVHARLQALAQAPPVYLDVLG
RPS6KA4(Kin.Dom.2-terminal), sequence (O75676 411-674 limits assumed): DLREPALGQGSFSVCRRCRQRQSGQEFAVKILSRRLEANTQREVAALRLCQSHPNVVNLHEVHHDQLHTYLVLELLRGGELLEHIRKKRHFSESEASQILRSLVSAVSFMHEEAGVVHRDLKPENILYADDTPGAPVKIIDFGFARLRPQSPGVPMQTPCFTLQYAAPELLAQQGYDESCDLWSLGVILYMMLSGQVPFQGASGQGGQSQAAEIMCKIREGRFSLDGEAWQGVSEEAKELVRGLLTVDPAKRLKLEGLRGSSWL
ERK2, sequence (P28482 whole entry): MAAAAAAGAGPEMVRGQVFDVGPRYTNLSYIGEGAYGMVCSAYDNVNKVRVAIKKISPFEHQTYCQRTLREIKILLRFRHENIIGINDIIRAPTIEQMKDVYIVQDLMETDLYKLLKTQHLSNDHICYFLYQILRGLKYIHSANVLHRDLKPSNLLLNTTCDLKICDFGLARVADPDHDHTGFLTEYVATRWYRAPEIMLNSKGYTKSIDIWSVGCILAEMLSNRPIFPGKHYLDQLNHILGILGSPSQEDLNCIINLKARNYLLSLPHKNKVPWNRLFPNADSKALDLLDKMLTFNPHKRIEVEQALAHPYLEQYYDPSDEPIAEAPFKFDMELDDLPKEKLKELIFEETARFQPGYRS

Compound | remaining binding at 1 µM [1] | remaining binding at 1 µM [2] | remaining binding at 1 µM [3] | remaining binding at 1 µM [4] | remaining binding at 1 µM [5] | remaining binding at 1 µM [6] | remaining binding at 1 µM [7] | remaining binding at 1 µM [8] | remaining binding at 1 µM [9] | remaining binding at 1 µM [10] | remaining binding at 1 µM [11] | remaining binding at 1 µM [12] | remaining binding at 1 µM [13] | remaining binding at 1 µM [14] | remaining binding at 1 µM [15] | remaining binding at 1 µM [16] | remaining binding at 1 µM [17] | remaining binding at 1 µM [18] | remaining binding at 1 µM [19] | remaining binding at 1 µM [20] | also measured
CCN1CCN(Cc2ccc(Nc3nc4ccc(Oc5ccnc(NC(C)=O)c5)cc4n3C)cc2C(F)(F)F)CC1 [Compound I-2] | 37% | 46% | 85% | 100% | 100% | 50% | 79% | 0.1% | 0.1% | 79% | 89% | 66% | 93% | 95% | 97% | 100% | 100% | 65% | 59% | 18% | remaining binding at 1 µM [21]: 43%; remaining binding at 1 µM [22]: 100%; remaining binding at 1 µM [23]: 100%; remaining binding at 1 µM [24]: 97%; remaining binding at 1 µM [25]: 84%; remaining binding at 1 µM [26]: 3.8%; remaining binding at 1 µM [27]: 85%; remaining binding at 1 µM [28]: 99%; remaining binding at 1 µM [29]: 81%; remaining binding at 1 µM [30]: 57%; remaining binding at 1 µM [31]: 92%; remaining binding at 1 µM [32]: 95%; remaining binding at 1 µM [33]: 94%; remaining binding at 1 µM [34]: 86%; remaining binding at 1 µM [35]: 88%; remaining binding at 1 µM [36]: 82%; remaining binding at 1 µM [37]: 100%; remaining binding at 1 µM [38]: 78%; remaining binding at 1 µM [39]: 31%; remaining binding at 1 µM [40]: 100%
CCN1CCN(Cc2ccc(Nc3nc4ccc(Oc5ccnc(NC(C)=O)c5)c(C)c4n3C)cc2C(F)(F)F)CC1 [Compound I-6, N-(4-(2-(4-((4-ethylpiperazin-1-yl)methyl)-3-(trifluoromethyl)phenylamino)-1,7-dimethyl-1H-benzo[d]imidazol-6-yloxy)pyridin-2-yl)acetamide] | 7.4% | 32% | 100% | 100% | 100% | 43% | 100% | 0% | 0.35% | 99% | 83% | 100% | 99% | 100% | 97% | 93% | 86% | 91% | 34% | 1.6% | remaining binding at 1 µM [21]: 40%; remaining binding at 1 µM [22]: 92%; remaining binding at 1 µM [23]: 96%; remaining binding at 1 µM [24]: 93%; remaining binding at 1 µM [25]: 68%; remaining binding at 1 µM [26]: 4.2%; remaining binding at 1 µM [27]: 97%; remaining binding at 1 µM [28]: 100%; remaining binding at 1 µM [29]: 85%; remaining binding at 1 µM [30]: 100%; remaining binding at 1 µM [31]: 100%; remaining binding at 1 µM [32]: 71%; remaining binding at 1 µM [33]: 82%; remaining binding at 1 µM [34]: 97%; remaining binding at 1 µM [35]: 89%; remaining binding at 1 µM [36]: 84%; remaining binding at 1 µM [37]: 81%; remaining binding at 1 µM [38]: 100%; remaining binding at 1 µM [39]: 3.5%; remaining binding at 1 µM [40]: 93%
